Tests used:
[1] = test system: ATXN3 pre-mRNA; experiment: RT-qPCR Assay to Quantify Exon 4 Skipping in ATXN3 pre-mRNA in Cells; type: cell-based; conditions: cells incubated with compound 24 h, 7-point concentration curve, GAPDH control
Protocol: (§1) RT-qPCR Assay to Quantify Exon 4 Skipping in ATXN3 pre-mRNA in Cells Test compounds were serially diluted 3.16-fold in 100% DMSO to generate a 7-point concentration curve. Aliquots of 0.5 μL of diluted compounds were transferred to a 96-well flat bottom plate by a liquid handler. An aliquot of 0.5 μL DMSO was also transferred to separate wells and used as controls. Duplicate samples were set up for each compound concentration and for the DMSO control.
Cells were thawed and incubated in cell culture media (DMEM, 10% FBS, and 1% antibiotic cocktail) for 72 h. Cells were trypsinized, counted, and re-suspended to a concentration of 100,000 cells/mL in cell culture media. A 100 μL aliquot of the cell suspensions were plated at 10,000 cells per well in the compound containing 96 well microtiter plate and incubated for in a cell culture incubator (37° C., 5% CO2, 100% relative humidity).
After 24 h, media was aspirated from the cells and 50 μL of the RCL2 lysis buffer (10 mM Tris-HCL pH 7.4, 150 mM NaCl, 0.33% IGEPAL® CA-630) was added to each well and incubated at room temperature for 1 min. Chilled nuclease free water (50 μL per well) was added and the plates were immediately transferred on ice. After 1 min on ice, plates were frozen at −80° C. overnight.
Preparation of RT-qPCR Reaction Mixture:
An aliquot of 2 μL/well of the cell lysates was transferred using the liquid handler to the Armadillo 384-Well PCR plate containing 8 μL/well of the RT-qPCR reaction mixture that was prepared as detailed above. The plates were then sealed with MicroAmp™ Optical Adhesive Film followed by spinning down for 1 min and placed in the CFX384 thermocycler (BioRad).
The RT-qPCR was carried out at the following temperatures for the indicated time: • Step 1: 48° C. (30 min) • Step 2: 95° C. (10 min) • Step 3: 95° C. (15 sec) • Step 4: 60° C. (1 min); then, repeated Steps 3 and 4 for a total of 40 cycles.
The percent exon 4 skipping was calculated for each dose of compound treatment using Equations 1 and 2.
Data were fit to a dose response curve and the IC50 was interpolated using XLfit® statistical and curve fitting package.
An IC50 value between >2.0 μM and ≤3.0 μM is indicated by one star (*). […] IC50 value between >0.5 μM and ≤1.0 μM is indicated by four stars (****). An IC50 value ≤0.5 μM is indicated by five stars (*****).

[2] = test system: Total ATXN3 (tATXN3) protein; experiment: Endogenous Total ATXN3 (tATXN3) Protein Assay (MSD immunoassay of cell lysates); type: cell-based; conditions: cells incubated with compound 48 h; 7-point concentration curve; MSD detection in cell lysate
Protocol: Endogenous Total ATXN3 (tATXN3) Protein Assay
Meso Scale Discovery (MSD) 96-well or 384-well plates were coated overnight at 4° C. with Ataxin 3 mouse monoclonal antibody (Invitrogen, MA3-082) at a concentration of 0.5 μg/mL in PBS (30 μL per well). Plates were then washed three times with 300 μL wash buffer (0.05% TWEEN®-20, polyethylene glycol sorbitan monolaurate, in PBS) and blocked (Meso Scale Diagnostics, R93BA-1; 5% BSA in PBS) for 2 h at room temperature with rotational shaking and then washed three times with wash buffer.
as §1, with “Test” for “RT-qPCR Assay to Quantify Exon 4 Skipping in ATXN3 pre-mRNA in Cells Test”
Cells were thawed and incubated in cell culture media (DMEM, 10% FBS, and 1% antibiotic cocktail) for 72 h. Cells were trypsinized, counted, and re-suspended to a concentration of 100,000 cells/mL in cell culture media. A 100 μL aliquot of the cell suspensions were plated at 10,000 cells per well in the compound containing 96 well microtiter plate and incubated for in a cell culture incubator (37° C., 5% CO2, 100% relative humidity). After 48 h, the medium was removed and 50-100 μL of lysis buffer (Meso Scale Diagnostics, R60TX-2) containing 1× halt protease inhibitor cocktail of (Thermo Scientific, Halt™ Protease Inhibitor Cocktail, 78430) per well was added to cells to provide a “cell lysate”. The plate was placed on a shaker at 4° C. for 30 minutes, then stored at −80° C.
Cell lysate samples (25 μL) were transferred to the antibody-coated MSD plate and incubated overnight at 4° C. After removal of the lysates, the plate was washed three times with wash buffer, and 25 μL of Ataxin 3 recombinant rabbit monoclonal antibody (Invitrogen, #702788) secondary antibody (diluted to 0.25 μg/mL in 0.05% TWEEN®-20 in blocking buffer) was added to each well and incubated with shaking for 1-2 h at room temperature. Following incubation with the secondary antibody, the wells were rinsed with wash buffer and then […] Anti Rabbit Antibody Goat SULFO-TAG Labeled (Meso Scale Diagnostics, R32AB-1) detecting antibody (diluted to 0.25 μg/mL in 0.05% TWEEN®-20 in blocking buffer) was added to each well and incubated with shaking for 1 h at room temperature. After rinsing three times with wash buffer, 150 μL of Read Buffer T with surfactant (tris-based buffer containing tripropylamine, Meso Scale Diagnostics, R92TC-1) were added to each empty well, and the plate was imaged on a SI 6000 imager (MSD) according to manufacturers' instructions provided for 96- or 384-well plates.

For Cc1c(C[C@H](C)N)sc2c(NCc3ccncc3F)cc(Cl)nc12 [Cpd 35, 2-[(2S)-2-aminopropyl]-5-chloro-N-[(3-fluoropyridin-4-yl)methyl]-3-methylthieno[3,2-b]pyridin-7-amine], the IC50 [1] was ≤ 500 nM and the IC50 [2] was ≤ 500 nM.
For Cc1c(C[C@@H](N)CCF)sc2c(NCc3cccs3)cc(Cl)nc12 [Cpd 92, 2-[(2S)-2-amino-4-fluorobutyl]-5-chloro-3-methyl-N-[(thiophen-2-yl)methyl]thieno[3,2-b]pyridin-7-amine], the IC50 [1] was ≤ 500 nM and the IC50 [2] was ≤ 500 nM.
For N[C@@H](COC(F)(F)F)Cc1sc2c(NCc3nccs3)cc(Cl)nc2c1Br [Cpd 64, 2-[(2R)-2-amino-3-(trifluoromethoxy)propyl]-3-bromo-5-chloro-N-[(1,3-thiazol-2-yl)methyl]thieno[3,2-b]pyridin-7-amine], the IC50 [1] was 500 to 1000 nM and the IC50 [2] was 500 to 1000 nM.
Work on Cc1c(C[C@@H](N)C(=O)N(C)c2ccccc2)sc2c(NCc3ccco3)cc(Cl)nc12 [Cpd 141, 3-(5-chloro-7-{[(furan-2-yl)methyl]amino}-3-methylthieno[3,2-b]pyridin-2-yl)-N-methyl-N-phenyl-D-alaninamide] yielded an IC50 [1] of 1000 to 1500 nM and an IC50 [2] of 1000 to 1500 nM.
Cc1c(NC[C@@H](C)N)sc2c(NCc3cccs3)cc(Cl)nc12 [Cpd 164, N^2-[(2R)-2-aminopropyl]-5-chloro-3-methyl-N^7-[(thiophen-2-yl)methyl]thieno[3,2-b]pyridine-2,7-diamine] was tested, and the IC50 [1] was 2000 to 3000 nM and the IC50 [2] was > 2000 nM.
With C#C[C@H](N)Cc1sc2c(NCc3ccco3)cc(Cl)nc2c1C [Cpd 123, 2-[(2R)-2-aminobut-3-yn-1-yl]-3-methyl-5-chloro-N-[(furan-2-yl)methyl]thieno[3,2-b]pyridin-7-amine] the IC50 [1] was ≤ 500 nM and the IC50 [2] was ≤ 500 nM.
In the case of Cc1c(NC[C@H](C)N)sc2c(NCc3cccs3)cc(Cl)nc12 [Cpd 163, N^2-[(2S)-2-aminopropyl]-5-chloro-3-methyl-N^7-[(thiophen-2-yl)methyl]thieno[3,2-b]pyridine-2,7-diamine], the IC50 [1] is reported as 500 to 1000 nM and the IC50 [2] is reported as 1000 to 1500 nM.
For CS(=O)(=O)C[C@H](N)Cc1sc2c(NCc3ccco3)cc(Cl)nc2c1Br [Cpd 117, 2-[(2R)-2-amino-3-(methanesulfonyl)propyl]-3-bromo-5-chloro-N-[(furan-2-yl)methyl]thieno[3,2-b]pyridin-7-amine], the IC50 [1] was ≤ 500 nM and the IC50 [2] was ≤ 500 nM.
C[C@H](N)Cc1sc2c(NCc3cccs3)cc(Cl)nc2c1Cl [Cpd 52, 2-[(2S)-2-aminopropyl]-3,5-dichloro-N-[(thiophen-2-yl)methyl]thieno[3,2-b]pyridin-7-amine] was tested, and the IC50 [1] was ≤ 500 nM and the IC50 [2] was ≤ 500 nM.
For COC[C@H](N)Cc1sc2c(NCc3ccco3)cc(Cl)nc2c1Cl [Cpd 40, 2-[(2R)-2-amino-3-methoxypropyl]-3,5-dichloro-N-[(furan-2-yl)methyl]thieno[3,2-b]pyridin-7-amine], the IC50 [1] was ≤ 500 nM and the IC50 [2] was ≤ 500 nM.
Cc1c(C[C@H](C)N)sc2c(NCc3ccco3)ccnc12 [Cpd 34, 2-[(2S)-2-aminopropyl]-N-[(furan-2-yl)methyl]-3-methylthieno[3,2-b]pyridin-7-amine] was tested, and the IC50 [1] was ≤ 500 nM and the IC50 [2] was ≤ 500 nM.
With Cc1c([C@H](C)[C@H](C)N)sc2c(NCc3ccco3)cc(Cl)nc12 [Cpd 150, 2-[(2R,3S)-3-aminobutan-2-yl]-5-chloro-N-[(furan-2-yl)methyl]-3-methylthieno[3,2-b]pyridin-7-amine] the IC50 [1] was ≤ 500 nM and the IC50 [2] was ≤ 500 nM.
With Cc1c(C[C@H](C)N)sc2c(NCc3ccccc3F)cc(Cl)nc12 [Cpd 29, 2-[(2S)-2-aminopropyl]-5-chloro-N-[(2-fluorophenyl)methyl]-3-methylthieno[3,2-b]pyridin-7-amine] the IC50 [1] was ≤ 500 nM and the IC50 [2] was ≤ 500 nM.
N[C@@H](CO)Cc1sc2c(NCc3ccco3)cc(Cl)nc2c1Cl [Cpd 39, (2R)-2-amino-3-(3,5-dichloro-7-{[(furan-2-yl)methyl]amino}thieno[3,2-b]pyridin-2-yl)propan-1-ol] was tested, and the IC50 [1] was ≤ 500 nM and the IC50 [2] was ≤ 500 nM.
N[C@H](Cc1sc2c(NCc3cccs3)cc(Cl)nc2c1Br)CC(F)F [Cpd 107, 2-[(2S)-2-amino-4,4-difluorobutyl]-3-bromo-5-chloro-N-[(thiophen-2-yl)methyl]thieno[3,2-b]pyridin-7-amine] was tested, and the “IC50, exon 4 skipping in ATXN3 pre-mRNA” value [1] was “inactive” and the IC50 [2] was 1000 to 1500 nM.
With N[C@@H](CF)Cc1sc2c(NCc3cccs3)cc(Cl)nc2c1Br [Cpd 76, 2-[(2R)-2-amino-3-fluoropropyl]-3-bromo-5-chloro-N-[(thiophen-2-yl)methyl]thieno[3,2-b]pyridin-7-amine] the IC50 [1] was ≤ 500 nM and the IC50 [2] was ≤ 500 nM.
In the case of N[C@H](Cc1sc2c(NCc3ccco3)cc(Cl)nc2c1Cl)C(=O)Nc1ccccc1 [Cpd 122, 3-(3,5-dichloro-7-{[(furan-2-yl)methyl]amino}thieno[3,2-b]pyridin-2-yl)-N-phenyl-D-alaninamide], the IC50 [1] is reported as ≤ 500 nM and the IC50 [2] is reported as ≤ 500 nM.
Molecule Cc1c(C[C@@H](N)CF)sc2c(NCc3cccs3)cc(Cl)nc12 [Cpd 91, 2-[(2R)-2-amino-3-fluoropropyl]-5-chloro-3-methyl-N-[(thiophen-2-yl)methyl]thieno[3,2-b]pyridin-7-amine] has an IC50 [1] of 2000 to 3000 nM and an IC50 [2] of 1000 to 1500 nM.
With Cc1c(C[C@H](N)CF)sc2c(NCc3ccco3)cc(Cl)nc12 [Cpd 59, 2-[(2S)-2-amino-3-fluoropropyl]-5-chloro-N-[(furan-2-yl)methyl]-3-methylthieno[3,2-b]pyridin-7-amine] the “IC50, exon 4 skipping in ATXN3 pre-mRNA” value [1] was “inactive” and the “IC50 (average), total ATXN3 protein” value [2] was “inactive”.
With C[C@H](N)Cc1sc2c(NCc3ccco3)cc(Cl)nc2c1C1CC1 [Cpd 51, 2-[(2S)-2-aminopropyl]-5-chloro-3-cyclopropyl-N-[(furan-2-yl)methyl]thieno[3,2-b]pyridin-7-amine] the IC50 [1] was ≤ 500 nM and the IC50 [2] was ≤ 500 nM.
For N[C@@H](CO)Cc1cc2nc(Cl)cc(NCc3ccco3)c2s1 [Cpd 17, (2R)-2-amino-3-(5-chloro-7-{[(furan-2-yl)methyl]amino}thieno[3,2-b]pyridin-2-yl)propan-1-ol], the IC50 [1] was ≤ 500 nM and the IC50 [2] was ≤ 500 nM.
For C[C@H](N)C(O)c1sc2c(NCc3cccs3)cc(Cl)nc2c1Br (stereo partly drawn) [Cpd 155, (2S)-2-amino-1-(3-bromo-5-chloro-7-{[(thiophen-2-yl)methyl]amino}thieno[3,2-b]pyridin-2-yl)propan-1-ol], the “IC50, exon 4 skipping in ATXN3 pre-mRNA” value [1] was “inactive” and the “IC50 (average), total ATXN3 protein” value [2] was “inactive”.
With Cc1c(C[C@@H](N)C(=O)O)sc2c(NCc3ccco3)cc(Cl)nc12 [Cpd 115, 3-(5-chloro-7-{[(furan-2-yl)methyl]amino}-3-methylthieno[3,2-b]pyridin-2-yl)-D-alanine] the IC50 [1] was ≤ 500 nM and the IC50 [2] was ≤ 500 nM.
